tested on: HCT116 cells; experiment: Cell viability assay (CellTiter-Glo, 72 hours) in HCT116 human colorectal cancer cells; format: cell-based; conditions: Homo sapiens, HCT-116; Table 4; HCT116, 72 hours; read-out: Activity
Procedure, shortened: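 2,000 cells/well adhered overnight, then compound added by digital dispenser with DMSO normalized to 0.5%. Viability read after 72 h at 37 °C by ATP-based CellTiter-Glo luminescence. IC50 from ten-point curves baseline-corrected to vehicle, five-parameter asymmetric least-squares fit.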

Row | Structure (SMILES) | IC50 [nM]
1 | CC#CCN1C(=O)c2ccccc2Sc2cc(NC(=S)Nc3ccc(OC(F)F)cc3)ccc21 [Table 4: —CH2CCMe; 4-F2HCOPh; CH, 1-(10-(But-2-yn-1-yl)-11-oxo-10,11-dihydrodibenzo[b,f][1,4]thiazepin-7-yl)-3-(4-(difluoromethoxy)phenyl)thiourea] | < 500

same assay, conditions: Homo sapiens, HCT-116; Table 5; HCT116, 72 hours; read-out: Activity

Row | Structure (SMILES) | IC50 [nM]
2 | CCC/C=C/CN1C(=O)c2ccccc2Sc2cc(Nc3nccnc3OC)ccc21 [(E)-10-(Hex-2-en-1-yl)-7-((3-methoxypyrazin-2-yl)amino)dibenzo[b,f][1,4]thiazepin-11 (10H)-one] | 500 to 1000
3 | CC#CCN1C(=O)c2ccccc2Sc2cc(Nc3ccc(C#N)nn3)ccc21 [6-((10-(But-2-yn-1-yl)-11-oxo-10,11-dihydrodibenzo[b,f][1,4]thiazepin-7-yl)amino)pyridazine-3-carbonitrile] | < 500
4 | CC#CCN1C(=O)c2ccccc2Sc2cc(Nc3nccc(C#N)n3)ccc21 [2-((10-(But-2-yn-1-yl)-11-oxo-10,11-dihydrodibenzo[b,f][1,4]thiazepin-7-yl)amino)pyrimidine-4-carbonitrile] | < 500

same assay, conditions: Homo sapiens, HCT-116; Table 6; HCT116, 72 hours; read-out: Activity

Row | Structure (SMILES) | IC50 [nM]
5 | CC#CCN1C(=O)c2ccccc2Sc2cc(NC3COCC3C#N)ccc21 (stereo not shown) [4-((10-(But-2-yn-1-yl)-11-oxo-10,11-dihydrodibenzo[b,f][1,4]thiazepin-7-yl)amino)tetrahydrofuran-3-carbonitrile] | 1000 to 5000
6 | CC#CCN1C(=O)c2ccccc2Sc2cc(NC3CC(OC)C3)ccc21 (stereo not shown) [Table 6: —CH2CCMe; 3-MeOcBu; CH/CH; S, 10-(But-2-yn-1-yl)-7-((3-methoxycyclobutyl)amino)dibenzo[b,f][1,4]thiazepin-11 (10H)-one] | < 500
7 | CC#CCN1C(=O)c2ccccc2Sc2cc(NC3CC(COC)C3)cnc21 (stereo not shown) [Table 6: —CH2CCMe; 3-MeOCH2-cBu; CH/N; S, 11-(But-2-yn-1-yl)-3-((3-(methoxymethyl)cyclobutyl)amino)benzo[f]pyrido[3,2-b][1,4]thiazepin-10(11H)-one] | < 500

same assay, conditions: Table 1; HCT116, 72 hours; read-out: Activity

Row | Structure (SMILES) | IC50 [nM]
8 | CC#CCN1C(=O)c2ccc(Cl)cc2Sc2cc(NC(=O)N3CCC3)ccc21 | < 500

same assay, conditions: Table 2; HCT116, 72 hours; read-out: Activity

Row | Structure (SMILES) | IC50 [nM]
9 | CC#CCN1C(=O)c2ccccc2Sc2cc(NC(=S)N3CCCCC3)ccc21 | < 500

same assay, conditions: Table 3; HCT116, 72 hours; read-out: Activity

Row | Structure (SMILES) | IC50 [nM]
10 | CC#CCN1C(=O)c2ccccc2Sc2cc(NC(=O)Nc3ccc4oc(=O)n(C)c4c3)cnc21 | < 500
11 | CC#CCN1C(=O)c2ccccc2Sc2cc(NC(=O)Nc3ccc4scnc4c3)cnc21 | < 500

same assay, conditions: Table 4; HCT116, 72 hours; read-out: Activity

Row | Structure (SMILES) | IC50 [nM]
12 | CC#CCN1C(=O)c2ccccc2Sc2cc(NC(=S)Nc3ccc4scnc4c3)ccc21 | < 500
13 | CC#CCN1C(=O)c2ccccc2Sc2cc(NC(=S)N[C@H]3C[C@H](OC)C3)cnc21 [Table 4: —CH2CCMe; trans-3-MeOcBu; N] | < 500
14 | CC#CCN1C(=O)c2ccccc2Sc2cc(NC(=S)N[C@H]3C[C@@H](O)C3)cnc21 [Table 4: —CH2CCMe; cis-3-OH-cBu; N] | < 500
15 | CC#CCN1C(=O)c2ccccc2Sc2cc(NC(=S)N[C@H]3C[C@H](O)C3)ccc21 [Table 4: —CH2CCMe; trans-3-OH-cBu; CH] | < 500

same assay, conditions: Table 5; HCT116, 72 hours; read-out: Activity

Row | Structure (SMILES) | IC50 [nM]
16 | CC#CCN1C(=O)c2ccccc2Sc2cc(Nc3nccc(C#N)c3F)cnc21 | < 500
17 | CC=CCN1C(=O)c2ccccc2Sc2cc(Nc3ncccc3F)cnc21 | < 500
18 | C#CCN1C(=O)c2ccccc2Sc2cc(Nc3nc(C)ccc3F)cnc21 | < 500
19 | CC=CCN1C(=O)c2ccccc2Sc2cc(Nc3ncccc3C)ccc21 | < 500
20 | Cc1cnc(C)c(Nc2cnc3c(c2)Sc2ccccc2C(=O)N3CC#CCl)n1 | < 500
21 | CC=CCN1C(=O)c2ccccc2Sc2cc(Nc3ncccc3F)ccc21 | < 500

same assay, conditions: Table 6; HCT116, 72 hours; read-out: Activity

Row | Structure (SMILES) | IC50 [nM]
22 | CC#CCN1C(=O)c2ccccc2Cc2cc(NC34CC(OC)(C3)C4)ccc21 | < 500
23 | O=C1c2ccccc2Sc2cc(NC3CC4(COC4)C3)ccc2N1CC#CCl | < 500
24 | O=C1c2ccccc2Sc2cc(NC3COC3)ccc2N1CC#CCl [Table 6: —CH2CCCl; oxetan-3-yl; CH/CH; S] | < 500
25 | C#CCN1C(=O)c2ccccc2Sc2cc(NC3CC(OC)C3)ccc21 (stereo not shown) [Table 6: —CH2CCH; 3-MeOcBu; CH/CH; S] | < 500

same assay, conditions: Table 7; cell viability assay, CellTiter-Glo, 72 hours; scaffold drawing 42 with R^2, R^3, X/Y, Z; read-out: Activity

Row | Structure (SMILES) | IC50 [nM]
26 | C#Cc1ccc(C(=O)Nc2ccc3c(c2)Sc2ccccc2C(=O)N3CCOC)cc1 [—(CH2)2OMe; 4-HCCPh; CH/CH; S] | 500 to 1000
27 | COCCN1C(=O)c2ccccc2Sc2cc(NC(=O)c3cccc(OCF)c3)ccc21 [—(CH2)2OMe; 3-FH2COPh; CH/CH; S] | < 500
28 | COCCN1C(=O)c2ccccc2Sc2cc(NC(=O)c3ccc(CN)cc3)ccc21 [—(CH2)2OMe; 4-(NH2CH2)Ph; CH/CH; S] | 1000 to 5000
29 | COCCN1C(=O)c2ccccc2Sc2cc(NC(=O)C3CC3)ccc21 [—(CH2)2OMe; cPr; CH/CH; S] | 1000 to 5000
30 | COCCN1C(=O)c2ccccc2Sc2cc(NC(=O)c3ccc(F)c(OC)c3)ccc21 [—(CH2)2OMe; 3-MeO,4-FPh; CH/CH; S] | 500 to 1000
31 | COCCN1C(=O)c2ccccc2Sc2cc(NC(=O)C3CCOCC3)ccc21 | 1000 to 5000
32 | COCCN1C(=O)c2ccccc2Sc2cc(NC(=O)c3ccc4ccccc4c3)ccc21 [—(CH2)2OMe; 2-naphtyl; CH/CH; S] | 1000 to 5000
33 | C#CCOCCN1C(=O)c2ccccc2Sc2cc(NC(=O)c3ccc(OC)cc3)ccc21 [—(CH2)2OCH2CCH; 4-MeOPh; CH/CH; S] | < 500

same assay, conditions: Table 8; analogs of scaffold drawing 43 defined by R^2, R^3, X/Y, W; read-out: Activity (IC50 class, cell viability assay)

Row | Structure (SMILES) | IC50 [nM]
34 | CO[C@H]1C[C@H](C(=O)Nc2cnc3c(c2)Sc2ccccc2C(=O)N3CC#CCF)C1 [—CH2CCCH2F; trans-3-MeOcBu; CH/CH; N] | < 500
35 | CC#CCN1C(=O)c2ccc(Cl)cc2Sc2cc(NC(=O)NCCOC)ccc21 [—CH2CCMe; NH(CH2)2OMe; CCl/CH; CH] | < 500
36 | CC#CCN1C(=O)c2ccccc2Sc2cc(NC(=O)c3ccc4scnc4c3)ccc21 | < 500
37 | CC#CCN1C(=O)c2ccc(Cl)cc2Sc2cc(NC(=O)C=CCO)ccc21 [—CH2CCMe; CH═CHCH2OH; CCI/CH; CH] | < 500
38 | CC#CCN1C(=O)c2ccccc2Sc2cc(NC(=O)C34CC(C(F)(F)F)(C3)C4)ccc21 | 500 to 1000
39 | CC#CCN1C(=O)c2ccc(Cl)cc2Sc2cc(NC(=O)[C@@H]3C[C@H]3C(=O)OC)ccc21 (relative stereo) [—CH2CCMe; trans-2-MeO2C-cPr; CCl/CH; CH] | < 500
40 | C#CCN1C(=O)c2cc(F)ccc2Sc2cc(NC(=O)C3CC(COC)C3)ccc21 (stereo not shown) [—CH2CCH; 3-MeOCH2-cBu; CH/CF; CH] | < 500
41 | CC#CCN1C(=O)c2ccc(Cl)cc2Sc2cc(NC(=O)OCCOC)ccc21 [—CH2CCMe; O(CH2)2OMe; CCl/CH; CH] | < 500
42 | CC#CCN1C(=O)c2cc(F)ccc2Sc2cc(NC(=O)C3CCOC3)cnc21 (stereo not shown) [—CH2CCMe; tetrahydrofuran-3-yl; CH/CF; N] | < 500
43 | CC#CCN1C(=O)c2ccc(Cl)cc2Sc2cc(NC(=O)C3COC3)ccc21 [—CH2CCMe; oxetan-3-yl; CCl/CH; CH] | < 500
44 | CC#CCN1C(=O)c2ccc(F)cc2Sc2cc(NC(=O)C3CC4(CC(=NO)C4)C3)ccc21 (stereo not shown) | < 500
45 | COC12CC(C(=O)Nc3cnc4c(c3)Sc3ccccc3C(=O)N4CC#CCF)(C1)C2 | < 500
46 | CC#CCN1C(=O)c2cc(F)ccc2Sc2cc(NC(=O)C3CC4(CC(=NO)C4)C3)cnc21 (stereo not shown) | < 500
47 | CC#CCN1C(=O)c2cc(F)ccc2Sc2cc(NC(=O)C3CC4(CC(=NO)C4)C3)ccc21 (stereo not shown) | < 500
48 | CC#CCN1C(=O)c2ccccc2Sc2cc(NC(=O)C3COC3)ccc21 [—CH2CCMe; oxetan-3-yl; CH/CH; CH] | < 500
49 | C#CCN1C(=O)c2ccc(Cl)cc2Sc2cc(NC(=O)[C@@H]3C[C@H]3COC)ccc21 (relative stereo) [—CH2CCH; trans-2-MeOCH2-cPr; CCl/CH; CH] | < 500
50 | C#CCN1C(=O)c2ccccc2Sc2cc(NC(=O)C3CC4(CC(=NO)C4)C3)ccc21 (stereo not shown) | < 500
51 | CC#CCN1C(=O)c2ccccc2Sc2cc(NC(=O)c3ccc(OC(F)(F)F)cc3)ccc21 [—CH2CCMe; 4-CF3OPh; CH/CH; CH] | < 500
52 | CC#CCN1C(=O)c2ccccc2Sc2cc(NC(=O)c3ccc(OC)cc3)ccc21 [—CH2CCMe; 4-MeOPh; CH/CH; CH] | < 500
53 | CC#CCN1C(=O)c2ccc(F)cc2Sc2cc(NC(=O)C3CC4(CC(=NOC)C4)C3)ccc21 (stereo not shown) | < 500
54 | COCC1CC(C(=O)Nc2ccc3c(c2)Sc2ccccc2C(=O)N3CC#CC(F)(F)F)C1 (stereo not shown) [—CH2CCCF3; 3-MeOCH2-cBu; CH/CH; CH] | < 500

same assay, conditions: Table 9; HCT116, 72 hours; read-out: Activity

Row | Structure (SMILES) | IC50 [nM]
55 | CC1c2ccccc2C(=O)N(CC#CC2CC2)c2ccc(NC(=O)C3CC4(CC(=O)C4)C3)cc21 (stereo not shown) | < 500
56 | CC#CCN1C(=O)c2ccccc2C(C)c2cc(NC(=O)[C@H]3C[C@@H](O)C3)ccc21 (stereo partly drawn) [Table 9: —CH2CCMe; cis-3-OH-cBu; CHMe] | < 500
57 | COc1ccc(C(=O)Nc2ccc3c(c2)C(C)(O)c2ccccc2C(=O)N3CC#CCl)cc1 (stereo not shown) [Table 9: —CH2CCCl; 4-MeOPh; CMeOH] | < 500
58 | COCC1CC(C(=O)Nc2ccc3c(c2)C(C#N)c2ccccc2C(=O)N3CC#CCF)C1 (stereo not shown) [Table 9: —CH2CCCH2F; 3-MeOCH2-cBu; CHCN] | < 500
59 | CC1(O)c2ccccc2C(=O)N(CC#CC2CC2)c2ccc(NC(=O)[C@@H]3C[C@H]3CO)cc21 (relative stereo) | < 500
60 | COC12CC(C(=O)Nc3ccc4c(c3)C(C#N)c3ccccc3C(=O)N4CC#CC3CC3)(C1)C2 (stereo not shown) | < 500
61 | COC1CC(C(=O)Nc2ccc3c(c2)C(C)c2ccccc2C(=O)N3CC#CC2CC2)C1 (stereo not shown) | < 500
62 | C#CCN1C(=O)c2ccccc2C(C#N)c2cc(NC(=O)C3CC(COC)C3)ccc21 (stereo not shown) [Table 9: —CH2CCH; 3-MeOCH2-cBu; CHCN] | < 500

same assay, conditions: cell viability assay; Table 10 analogs of scaffold drawing 45 defined by R2, R3, X/Y, W; read-out: Activity

Row | Structure (SMILES) | IC50 [nM]
63 | CO[C@H]1C[C@H](C(=O)Nc2cnc3c(c2)Sc2ccccc2C(=O)N3CC#CCF)C1 [—CH2CCCH2F; trans-3-MeOcBu; CH/CH; N] | < 500
64 | CC#CCN1C(=O)c2ccccc2Sc2cc(NC(=O)C34CC(OC)(C3)C4)ccc21 | < 500

— patent publication US20260097047A1, “Small molecule inhibitors of the ribosome biogenesis factor NVL2” (Board of Regents, The University of Texas System, priority 2023, published 2026)
